Measured values taken from patent US9156827B2, “Anticancer agent” (THE UNIVERSITY OF TOKYO, priority 2010, dated 2015).

Key:
[1] = tested on: Human acute myeloid leukemia MV4-11 cells; assay: Cell proliferation-suppressing activity, chromogenic method (Cell Counting Kit-8); format: cell-based; conditions: compound 1 μM, 48 hours, Cell Counting Kit-8, absorbance 450 nm
Method: Measurement of Cell Proliferation-Suppressing Activity (Chromogenic Method)
Human acute myeloid leukemia MV4-11 cells (2×10^4 cells) are inoculated on a 96-well microtiter plate. Each compound is added at a final concentration of 1 μM on the next day, and the cells are cultured for additional 48 hours. Absorbance is measured at 450 nm by using Cell Counting Kit-8 (Nacalai Tesque) to calculate the cell proliferation-suppressing activity.

pim-1 kinase = pim-1 kinase (Homo sapiens, UniProt P11309); assay: Measurement of pim-1 kinase inhibitory activity (fluorescent substrate peptide, capillary electrophoresis); format: biochemical; conditions: 0.1 μM of each compound, 30 μM ATP, 1.5 μM substrate peptide, room temperature 2 hours
Method: Measurement of Pim-1 Kinase Inhibitory Activity
The result of the reaction was determined by quantifying the substrate and the phosphorylated reaction product separated by capillary electrophoresis based on difference in charges of the substances (EZ Reader II, Caliper Life Sciences, was used).

pim-1 kinase, sequence (P11309 whole entry): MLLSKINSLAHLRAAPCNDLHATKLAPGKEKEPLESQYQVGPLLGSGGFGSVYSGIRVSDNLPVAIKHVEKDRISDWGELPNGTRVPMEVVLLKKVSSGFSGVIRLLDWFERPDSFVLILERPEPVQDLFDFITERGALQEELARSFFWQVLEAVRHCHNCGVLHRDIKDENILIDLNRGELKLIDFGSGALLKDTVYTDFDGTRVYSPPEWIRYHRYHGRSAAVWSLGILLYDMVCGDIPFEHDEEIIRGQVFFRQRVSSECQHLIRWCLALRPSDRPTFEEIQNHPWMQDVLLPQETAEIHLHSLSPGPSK

| inhibition at 0.1 µM (pim-1 kinase; Table 2) | SMILES | inhibition at 1 µM ([1]; Table 7) | other results |
| --- | --- | --- | --- |
|  | O=C1/C(=C/c2c[nH]c3ccccc23)Oc2c1ccc(O)c2CN1CCCNCC1 [Compound A55, (Z)-7-[(1,4-Diazepan-1-yl)methyl]-2-[(1H-indol-3-yl)methylene]-6-hydroxybenzofuran-3(2H)-one] |  | inhibition at 1 µM ([1]; Table 6): 79%; inhibition at 0.1 µM (pim-1 kinase; Table 1): 46% |
|  | O=C1/C(=C/c2c[nH]c3ccccc23)Oc2c(CN3CCNCC3)cccc21 [Compound A56, (Z)-2-[(1H-indol-3-yl)methylene]-7-(piperazin-1-ylmethyl)benzofuran-3(2H)-one] |  | inhibition at 1 µM ([1]; Table 6): 43%; inhibition at 0.1 µM (pim-1 kinase; Table 1): 80% |
|  | COc1ccc2c(c1CN1CCNCC1)O/C(=C\c1cn(S(=O)(=O)c3ccc(C)cc3)c3ccccc13)C2=O [Compound A57, (Z)-6-Methoxy-7-(piperazin-1-ylmethyl)-2-[(1-tosyl-1H-indol-3-yl)methylene]benzofuran-3(2H)-one] |  | inhibition at 1 µM ([1]; Table 6): 37%; inhibition at 0.1 µM (pim-1 kinase; Table 1): 28% |
|  | O=C1/C(=C/c2c[nH]c3ncccc23)Oc2c(CN3CCNCC3)cccc21 [Compound A58, (Z)-2-[(1H-Pyrrolo[2,3-b]pyridin-3-yl)methylene]-7-(piperazin-1-ylmethyl)benzofuran-3(2H)-one] |  | inhibition at 1 µM ([1]; Table 6): 72%; inhibition at 0.1 µM (pim-1 kinase; Table 1): 92% |
|  | CCOc1ccc2c(c1CN1CCNCC1)O/C(=C\c1c[nH]c3ccccc13)C2=O [Compound A59, (Z)-2-[(1H-Indol-3-yl)methylene]-6-ethoxy-7-(piperazin-1-ylmethyl)benzofuran-3(2H)-one] |  | inhibition at 1 µM ([1]; Table 6): 95%; inhibition at 0.1 µM (pim-1 kinase; Table 1): 92% |
|  | CCCOc1ccc2c(c1CN1CCNCC1)O/C(=C\c1c[nH]c3ccccc13)C2=O [Compound A60, (Z)-2-((1H-Indol-3-yl)methylene)-7-(piperazin-1-ylmethyl)-6-propoxybenzofuran-3(2H)-one] |  | inhibition at 1 µM ([1]; Table 6): 91%; inhibition at 0.1 µM (pim-1 kinase; Table 1): 84% |
|  | O=C1/C(=C/c2c[nH]c3ccccc23)Oc2c1ccc(OCc1ccccc1)c2CN1CCNCC1 [Compound A61, (Z)-2-[(1H-Indol-3-yl)methylene]-6-(benzyloxy)-7-(piperazin-1-ylmethyl)benzofuran-3(2H)-one] |  | inhibition at 1 µM ([1]; Table 6): 58%; inhibition at 0.1 µM (pim-1 kinase; Table 1): 66% |
| 94% | O=C1/C(=C/c2n[nH]c3ccc(Br)cc23)Oc2c1ccc(O)c2CN1CCNCC1 [Compound B10, (Z)-6-Hydroxy-7-(piperazin-1-ylmethyl)-2-[(5-bromo-1H-indazol-3-yl)methylene]benzofuran-3(2H)-one] |  |  |
| 87% | COc1ccc2[nH]nc(/C=C3\Oc4c(ccc(O)c4CN4CCNCC4)C3=O)c2c1 [Compound B11, (Z)-6-Hydroxy-7-(piperazin-1-ylmethyl)-2-[(5-methoxy-1H-indazol-3-yl)methylene]benzofuran-3(2H)-one] |  |  |
| 90% | O=C1/C(=C/c2n[nH]c3ccc(OC(F)(F)F)cc23)Oc2c1ccc(O)c2CN1CCNCC1 [Compound B12, (Z)-6-Hydroxy-7-(piperazin-1-ylmethyl)-2-{[5-(trifluoromethoxy)-1H-indazol-3-yl]methylene}benzofuran-3(2H)-one] |  |  |
| 88% | O=C1/C(=C/c2n[nH]c3ccccc23)Oc2c1cc(Cl)c(O)c2CN1CCNCC1 [Compound B13, (Z)-2-[(1H-Indazol-3-yl)methylene]-5-chloro-6-hydroxy-7-(piperazin-1-ylmethyl)benzofuran-3(2H)-one] |  |  |
| 80% | O=C1/C(=C/c2n[nH]c3ccc(F)cc23)Oc2c1cc(Cl)c(O)c2CN1CCNCC1 [Compound B14, (Z)-5-Chloro-2-[(5-fluoro-1H-indazol-3-yl)methylene]-6-hydroxy-7-(piperazin-1-ylmethyl)benzofuran-3(2H)-one] |  |  |
| 90% | O=C1/C(=C/c2n[nH]c3ccc(Cl)cc23)Oc2c1cc(Cl)c(O)c2CN1CCNCC1 [Compound B15, (Z)-5-Chloro-2-[(5-chloro-1H-indazol-3-yl)methylene]-6-hydroxy-7-(piperazin-1-ylmethyl)benzofuran-3(2H)-one] |  |  |
| 93% | O=C1/C(=C/c2n[nH]c3ccc(Br)cc23)Oc2c1cc(Cl)c(O)c2CN1CCNCC1 [Compound B16, (Z)-5-Chloro-2-[(5-bromo-1H-indazol-3-yl)methylene]-6-hydroxy-7-(piperazin-1-ylmethyl)benzofuran-3(2H)-one] |  |  |
| 95% | COc1ccc2c(c1C(C)N1CCNCC1)O/C(=C\c1n[nH]c3ccccc13)C2=O (stereo not drawn) [Compound B20, (Z)-2-[(1H-Indazol-3-yl)methylene]-6-methoxy-7-[1-(piperazin-1-yl)-ethyl]benzofuran-3(2H)-one] |  |  |
|  | O=C1/C(=C/c2n[nH]c3ccccc23)Oc2c1ccc(OCc1ccccc1)c2CN1CCNCC1 [Compound B28, (Z)-2-[(1H-Indazol-3-yl)methylene]-6-(benzyloxy)-7-(piperazin-ylmethyl)benzofuran-3(2H)-one] |  | Pim-1 kinase inhibitory activity (%) (pim-1 kinase; Table 2): 92% |
| 63% | COc1ccc2c(c1CN1CCN(C)CC1)O/C(=C\c1n[nH]c3ccccc13)C2=O [Compound B32, (Z)-2-[(1H-Indazol-3-yl)methylene]-6-methoxy-7-[(4-methylpiperazin-1-yl)methyl]benzofuran-3(2H)-one] |  |  |
| 39% | COc1ccc2c(c1CN1CCOCC1)O/C(=C\c1n[nH]c3ccccc13)C2=O [Compound B33, (Z)-2-[(1H-Indazol-3-yl)methylene]-6-methoxy-7-(morpholinomethyl)benzofuran-3(2H)-one] |  |  |
| 94% | O=C1/C(=C/c2n[nH]c3ccccc23)Oc2c1ccc(OCCO)c2CN1CCNCC1 [Compound B34, (Z)-2-[(1H-Indazol-3-yl)methylene]-6-(2-hydroxyethoxy)-7-(piperazin-1-ylmethyl)benzofuran-3(2H)-one] |  |  |
| 31% | O=C1/C(=C/c2n[nH]c3ccccc23)Oc2c1ccc(O)c2C(=O)N1CCNCC1 [Compound B36, (Z)-2-[(1H-Indazol-3-yl)methylene]-6-hydroxy-7-(piperazine-1-carbonyl)benzofuran-3(2H)-one] |  |  |
| 14% | CN1CCN(Cc2cc(Cl)cc3c2O/C(=C\c2n[nH]c4ccccc24)C3=O)CC1 [Compound B40, (Z)-2-[(1H-Indazol-3-yl)methylene]-5-chloro-7-[(4-methylpiperazin-1-yl)methyl]benzofuran-3(2H)-one] |  |  |
| 79% | O=C1/C(=C/c2n[nH]c3ccccc23)Oc2c(CN3CCNCC3)cccc21 [Compound B45, (Z)-2-[(1H-Indazol-3-yl)methylene]-7-(piperazin-1-ylmethyl)benzofuran-3(2H)-one] | 28% |  |
| 86% | COc1ccc2c(c1C#CCN1CCNCC1)O/C(=C\c1n[nH]c3ccccc13)C2=O [Compound B46, (Z)-2-[(1H-Indazol-3-yl)methylene]-6-methoxy-7-[3-(piperazin-1-yl)prop-1-ynyl]benzofuran-3(2H)-one] | 97% |  |
| 84% | COc1ccc2c(c1/C=C\CN1CCNCC1)O/C(=C\c1n[nH]c3ccccc13)C2=O [Compound B47, (Z)-2-[(1H-Indazol-3-yl)methylene]-6-methoxy-7-[(Z)-3-(piperizin-1-yl)prop-1-enyl]benzofuran-3(2H)-one (Z)-2-[(1H-Indazol-3-yl)methylene]-6-methoxy-7-[(Z)-3-(piperazin-1-yl)prop-1-enyl]benzofuran-3(2H)-one] | 99% |  |
| 75% | COc1ccc2c(c1CCCN1CCNCC1)O/C(=C\c1n[nH]c3ccccc13)C2=O [Compound B48, (Z)-2-[(1H-Indazol-3-yl)methylene]-6-methoxy-7-[3-(piperazin-1-yl)propyl]benzofuran-3(2H)-one] | 96% |  |
| 63% | COc1ccc2c(c1C#CCCN1CCNCC1)O/C(=C\c1n[nH]c3ccccc13)C2=O [Compound B49, (Z)-2-[(1H-Indazol-3-yl)methylene]-6-methoxy-7-[4-(piperazin-1-yl)but-1-ynyl]benzofuran-3(2H)-one] | 93% |  |
| 82% | COc1ccc2c(c1/C=C\CCN1CCNCC1)O/C(=C\c1n[nH]c3ccccc13)C2=O [Compound B50, (Z)-2-[(1H-Indazol-3-yl)methylene]-6-methoxy-7-[(Z)-4-(piperazin-1-yl)but-1-enyl]benzofuran-3(2H)-one] | 96% |  |
| 86% | COc1ccc2c(c1CCCCN1CCNCC1)O/C(=C\c1n[nH]c3ccccc13)C2=O [Compound B51, (Z)-2-[(1H-Indazol-3-yl)methylene]-6-methoxy-7-[4-(piperazin-1-yl)butyl]benzofuran-3(2H)-one] | 94% |  |
| 36% | COc1ccc2c(c1C1CCNCC1)O/C(=C\c1n[nH]c3ccccc13)C2=O [Compound B53, (Z)-2-[(1H-Indazol-3-yl)methylene]-6-methoxy-7-(piperidin-4-yl)benzofuran-3(2H)-one] | 98% |  |
| 98% | COc1ccc2c(c1CC1CCNCC1)O/C(=C\c1n[nH]c3ccccc13)C2=O [Compound B54, (Z)-2-[(1H-Indazol-3-yl)methylene]-6-methoxy-7-(piperidin-4-ylmethyl)benzofuran-3(2H)-one] | 97% |  |

| SMILES | inhibition at 0.1 µM (pim-1 kinase; Table 2) | inhibition at 1 µM ([1]; Table 7) | other results |
| --- | --- | --- | --- |
| COc1ccc2c(c1C1=CCNCC1)O/C(=C\c1n[nH]c3ccccc13)C2=O [Compound B52, (Z)-2-[(1H-Indazol-3-yl)methylene]-6-methoxy-7-(1,2,3,6-tetrahydropyridin-4-yl)benzofuran-3(2H)-one] | 50% | 98% |  |
